{
  "source": "patent US20220265606A1",
  "about": "“ANTICANCER AGENTS” (The Texas A&M University System, priority 2019, published 2022)",
  "key": {"[1]": {"target": "NR4A2 ligand binding domain (LBD) (Homo sapiens, UniProt P43354)", "sequence (P43354 360-595 limits assumed, species assumed)": "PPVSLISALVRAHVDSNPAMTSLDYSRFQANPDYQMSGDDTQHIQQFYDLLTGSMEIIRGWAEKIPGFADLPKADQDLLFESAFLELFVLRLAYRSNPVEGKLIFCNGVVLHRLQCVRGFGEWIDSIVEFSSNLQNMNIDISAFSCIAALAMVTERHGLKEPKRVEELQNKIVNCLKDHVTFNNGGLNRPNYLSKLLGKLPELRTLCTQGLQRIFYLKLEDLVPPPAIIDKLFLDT", "assay": "Ligand-induced quenching of NR4A2 LBD tryptophan fluorescence", "procedure": "Quenching of NR4A1 Tryptophan Fluorescence by Direct Ligand Binding. Tryptophan fluorescence spectra were obtained as described herein. Briefly, histidine-tagged ligand binding domain (LBD) of NR4A1 at a final concentration of 0.5 μmol/L in 1.0 mL of phosphate-buffered saline (PBS, pH 7.4) was used for fluorescence measurements. The protein was incubated for 3 min at 25 °C in a temperature-controlled (Quantum Northwest TC125) fluorescence spectrophotometer (Varian Cary Eclipse). […] Ligand only fluorescence intensity at each ligand concentration was used to correct the NR4A1 tryptophan fluorescence intensity as described in the above references.\nAccordingly, ligand binding assay for NR4A1 and NR4A2 which measures ligand-induced quenching of tryptophan fluorescence by the ligand were developed to further characterize activity with respect to NR4A1 and NR4A2. A tryptophane residue is located in the ligand binding domain (LBD) of both receptors and the LBD of the receptor is used in the binding assay."}, "[2]": {"tested_on": "vasoactive intestinal peptide (VIP) in pancreatic cancer cells", "settings": "initial (background) work; cited from earlier work"}, "NR4A2 [3]": {"tested_on": "NR4A2", "settings": "Panc1 / pancreatic cancer cells", "description": "(§2) Transactivation Assay. Cells (8×10^4) per well were plated on 12-well plates in DMEM/F-12 supplemented with 2.5% charcoal-stripped FBS and 0.22% sodium bicarbonate. After 24 h growth, various amounts of DNA [i.e., UASx5-Luc (400 ng), GAL4-Nurr1 (40 ng) and β-gal (40 ng)] were cotransfected into each well by Lipofectamine 2000 reagent (Invitrogen, Carlsbad, Calif.) according to the manufacturer's protocol. After 5-6 hr of transfection, cells were treated with plating media (as above) containing either solvent (DMSO) or the indicated concentration of compounds for 24 hr. Cells were then lysed using a freeze-thaw protocol and 30 μL of cell extract was used for luciferase and β-gal assays. LumiCount (Packard, Meriden, Conn.) was used to quantify luciferase and β-gal activities. Luciferase activity values were normalized against corresponding (3-gal activity values as well as protein concentrations determined by Lowry's Method."}, "glioblastoma cells [4]": {"tested_on": "glioblastoma cells", "assay": "Measurement of apoptosis (Annexin V staining)", "type": "cell-based, human", "settings": "24 hr", "procedure": "Measurement of Apoptosis (Annexin V Staining). Cancer cells were seeded at density of 1.5×10^5 per ml in 6 well plates and treated with either vehicle (DMSO) or compounds for 24 hr.\n(§1) Glioblastoma cells were treated with different concentrations of 4-Cl (FIG. 6A), 3-CF3-4-Cl (FIG. 6B), and 2-OH-4-Br (FIG. 6C) and effects on induction of Annexin V were determined as outlined herein. Glioblastoma cells were treated with different concentrations of NR4A2 antagonists and whole cell lysates were analyzed for markers of apoptosis by western blots."}, "glioblastoma cells [5]": {"tested_on": "glioblastoma cells", "assay": "Western blot of apoptosis markers in whole cell lysates", "type": "cell-based, human", "procedure": "Western Blot Analysis. 17008, 15037, 14104s, 14015s, 15049, U87-MG, A172, T98G, and CCF-STTG1 cells were seeded at density of 1.5×10^5 per ml in 6 well plates and treated with various concentration of compounds and whole cell proteins were extracted using RIPA lysis buffer containing 10 mM Tris-HCl (pH 7.4), 150 mM NaCl, 1 mM ethylenediaminetetraacetic acid (EDTA), 1% Triton X-100 (w/v), 0.5% sodium deoxycholate and 0.1% sodium dodecylsulphate (SDS) with protease and phosphatase inhibitor cocktail. Protein concentrations were measured using Lowry's method and equal amounts of protein were separated in 10% and 15% SDS-PAGE and transferred to a Polyvinylidene difluoride (PVDF) membrane. PVDF membranes were incubated overnight at 4° C. with primary antibodies in 5% skimmed milk and incubated for 2-3 hr with secondary antibodies conjugated with horseradish peroxidase (HRP). Membranes were then exposed to HRP-substrate and immune reacted proteins were detected with chemiluminescence reagent.\nas §1"}, "NR4A2 [6]": {"tested_on": "NR4A2", "description": "as §2"}, "[7]": {"tested_on": "U87-MG cells as xenografts", "assay": "Xenograft study", "type": "in vivo, athymic nu/nu mice", "procedure": "Xenograft Study. Female athymic nu/nu mice (4-6 weeks old) were purchased from Harlan Laboratories (Houston, TX). U87-MG cells (1×10^6) were harvested in 100 μl of DMEM and suspended in ice-cold Matrigel (1:1 ratio) and s.c. injected to either side of the flank area of the mice. After one week of tumor cell inoculation, mice were divided into two groups of 5 animals each. The first group received 100 μL of vehicle (corn oil), and second group of animals received an injection of 30 mg/kg/day of C-DIM 12 in 100 μl volume of corn oil by i.p. for three weeks. All mice were weighed once a week over the course of treatment to monitor changes in body weight. Tumor volumes could not be determined over the period of treatment because xenografted tumors were relatively deep. After three weeks of treatment, mice were sacrificed and tumor weights were determined."}, "[8]": {"settings": "previous studies, cited from earlier work"}, "dopaminergic neurons": {"tested_on": "dopaminergic neurons", "settings": "in vivo, previous studies; cited from earlier work"}, "15037 cells": {"tested_on": "15037 cells", "assay": "3D tumor spheroid invasion assay", "settings": "10 μM, vs DMSO", "description": "Three-Dimensional (3D) Tumor Spheroid Invasion Assay. The cells were suspended in the complete medium (2×10^4 cells/ml). […] The plate was transferred to the incubator for 1 hr and 100 μl of the complete media containing 3 times the desired final concentration of compounds was supplemented and then incubated for 3-5 days followed by fixation in 4% formaldehyde. Spheroid invasion was determined by measuring the cross-sectional areas of the spheroid center and the rim of invaded cells using ImageJ."}, "[9]": {"tested_on": "vasoactive intestinal peptide (VIP) gene expression in Panc1 cells", "assay": "VIP gene expression by quantitative PCR in Panc1 cells", "description": "(§3) The effects of bis-indole and quinoline derivatives on activation of the NR4A2 regulated genes vasoactive intestinal peptide (VIP) was investigated. […] Relative expression levels of VIP were determined by quantitative PCR analysis. Results are expressed as means±SD for at least six separate determinations for each treatment."}, "[10]": {"tested_on": "vasoactive intestinal peptide (VIP) gene expression in Panc28 cells", "assay": "VIP gene expression by quantitative PCR in Panc28 cells", "description": "as §3"}, "NR4A1 LBD": {"target": "T1, NR4A1 LBD (Homo sapiens, UniProt P22736)", "T1 construct": "histidine tag", "T1 sequence (P22736 360-595 limits assumed, species assumed)": "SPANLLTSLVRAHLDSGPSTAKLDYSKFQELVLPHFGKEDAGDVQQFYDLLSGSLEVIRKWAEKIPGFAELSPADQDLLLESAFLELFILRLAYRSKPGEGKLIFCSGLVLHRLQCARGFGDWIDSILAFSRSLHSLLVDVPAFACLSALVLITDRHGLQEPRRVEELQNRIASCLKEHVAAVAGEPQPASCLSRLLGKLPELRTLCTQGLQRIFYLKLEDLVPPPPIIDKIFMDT", "assay": "NR4A1/bisANS fluorescence binding", "procedure": "The binding affinity (Kd) and binding stoichiometry (Bmax) of NR4A1/bisANS were determined essentially as described in FEBS Journal, 2014, 281, 2266-2283. For NR4A1/bisANS the binding affinity (Kd) was determined to be […] and the binding stoichiometry (Bmax) was determined to be 0.80 mol bisANS/mol NR4A1. The ability of ligand to displace bisANS was analyzed essentially as described in FEBS Journal, 2014, 281, 2266-2283. Briefly, histidine-tagged NR4A1 LBD (final concentration=0.05 μmon PBS, pH 7.4) was incubated at 25° C. for 3 min in the presence of 5.0 μmol bisANS/L. The bisANS fluorescence spectrum was obtained utilizing a Varian Cary Eclipse fluorescence spectrophotometer with an excitation wavelength of 365 nm (excitation slit width=5 nm) and an emission wavelength range of 400-600 nm (emission slit width=5 nm). Ligand titration was accomplished as described above for direct ligand binding using a stock ligand concentration of 10 mmol ligand/L ethanol. Addition of ethanol only had no effect on NR4A1/bisANS fluorescence (data not shown). […] Ligand/bisANS fluorescence intensity at each ligand concentration was used to correct the NR4A1/bisANS/ligand fluorescence intensity as described in the above reference."}},
  "note": "Like-named read-outs stand apart in the source and are kept apart here.",
  "data": [
    {"smiles": "Clc1ccccc1C(c1c[nH]c2ccccc12)c1c[nH]c2ccccc12", "note": "[CDIM-2-Cl]", "values": [
      {"measurement": "Binding to NR4A2 (quenching of LBD-Trp), in words", "setting": "[1]", "result": "gave similar results"}
    ]},
    {"smiles": "Clc1cccc(C(c2c[nH]c3ccccc23)c2c[nH]c3ccccc23)c1", "note": "[CDIM-3-Cl]", "values": [
      {"measurement": "Binding to NR4A2 (quenching of LBD-Trp), in words", "setting": "[1]", "result": "gave similar results"}
    ]},
    {"smiles": "Brc1ccc(C(c2c[nH]c3ccccc23)c2c[nH]c3ccccc23)cc1", "note": "[CDIM-4-Br, 1-bis(3′indolyl)-1-(p-bromophenyl)methane]", "values": [
      {"measurement": "Induction of VIP in pancreatic cancer cells", "setting": "[2]", "result": "induced vasoactive intestinal peptide (VIP)"}
    ]},
    {"smiles": "Clc1ccc(C(c2c[nH]c3ccccc23)c2c[nH]c3ccccc23)cc1", "note": "[CDIM-4-Cl]", "values": [
      {"measurement": "NR4A2-dependent transactivation", "setting": "NR4A2 [3]", "result": "activated NR4A2-dependent transactivation"},
      {"measurement": "Annexin V staining", "setting": "glioblastoma cells [4]", "result": "induced Annexin V staining"},
      {"measurement": "Binding to NR4A2 (quenching of LBD-Trp), in words", "setting": "[1]", "result": "do not quench the LBD-Trp"},
      {"measurement": "Cleavage of caspase 7, 8 and PARP", "setting": "glioblastoma cells [5]", "result": "cleaved caspase 7, 8 and PARP cleavage"},
      {"measurement": "Induction of VIP in pancreatic cancer cells", "setting": "[2]", "result": "induced vasoactive intestinal peptide (VIP)"},
      {"measurement": "NR4A2-dependent transactivation in GBM cells (FIGS. 4A-4C)", "setting": "NR4A2 [6]", "result": "inhibited NR4A2-dependent transactivation"},
      {"measurement": "Tumor weight", "setting": "[7]; 30 mg/kg/day i.p. for three weeks, athymic nude mice bearing U87-MG xenograft", "result": "significantly decreased tumor weight"},
      {"measurement": "Cleaved caspase 8 in tumors", "setting": "[7]; 30 mg/kg/day, western blot of tumor lysates vs vehicle controls", "result": "significant upregulation of cleaved caspase 8"},
      {"measurement": "Crossing of the blood-brain barrier", "setting": "[8]", "result": "cross the blood-brain barrier"},
      {"measurement": "Crossing of the blood-brain barrier", "setting": "[8]; listed as DIM-C-pPhCl", "result": "crosses the blood-brain barrier and accumulates in the brain"},
      {"measurement": "MPTP-induced loss of dopaminergic neurons", "setting": "dopaminergic neurons", "result": "inhibited"},
      {"measurement": "Tumor spheroid invasion", "setting": "15037 cells", "result": "inhibited tumor spheroid invasion"}
    ]},
    {"smiles": "Oc1cc(Br)ccc1C(c1c[nH]c2ccccc12)c1c[nH]c2ccccc12", "note": "[Ligand 2-OH-4-Br]", "values": [
      {"measurement": "NR4A2-dependent transactivation", "setting": "NR4A2 [3]", "result": "induced NR4A2-dependent transactivation"},
      {"measurement": "Annexin V staining", "setting": "glioblastoma cells [4]", "result": "induced Annexin V staining"},
      {"measurement": "Induction of VIP expression", "setting": "[9]; bis-indole analogs 5, 10 and 15 μM, CQ 100, 150 and 200 μM, AQ 50, 75 and 100 μM", "result": "≤ 330", "unit": "fold"},
      {"measurement": "Cleavage of caspase 7, 8 and PARP", "setting": "glioblastoma cells [5]", "result": "cleaved caspase 7, 8 and PARP cleavage"}
    ]},
    {"smiles": "FC(F)(F)c1cc(C(c2c[nH]c3ccccc23)c2c[nH]c3ccccc23)ccc1Cl", "note": "[Ligand 3-CF3-4-Cl]", "values": [
      {"measurement": "NR4A2-dependent transactivation", "setting": "NR4A2 [3]", "result": "induced NR4A2-dependent transactivation"},
      {"measurement": "Annexin V staining", "setting": "glioblastoma cells [4]", "result": "induced Annexin V staining"},
      {"measurement": "Cleavage of caspase 7, 8 and PARP", "setting": "glioblastoma cells [5]", "result": "cleaved caspase 7, 8 and PARP cleavage"}
    ]},
    {"smiles": "Cn1cc(C(c2ccc(O)cc2)c2cn(C)c3ccccc23)c2ccccc21", "note": "[N—Me-4-OH]", "values": [
      {"measurement": "NR4A2-dependent transactivation", "setting": "NR4A2 [3]", "result": "induced NR4A2-dependent transactivation"},
      {"measurement": "Induction of VIP, in words", "setting": "[9]", "result": "more potent inducer of VIP in Panc1 and Panc28 cells than either CQ or AQ"},
      {"measurement": "Induction of VIP, in words", "setting": "[10]", "result": "more potent inducer of VIP in Panc1 and Panc28 cells than either CQ or AQ"}
    ]},
    {"smiles": "O=S(=O)(O)c1cccc2c(-c3ccc(Nc4ccccc4)c4c(S(=O)(=O)O)cccc34)ccc(Nc3ccccc3)c12", "note": "[bisANS]", "values": [
      {"measurement": "NR4A1/bisANS binding stoichiometry (Bmax)", "setting": "NR4A1 LBD", "result": 0.80, "unit": "mol bisANS/mol NR4A1"}
    ]}
  ]
}
